According to PubChem BioAssay (NCI):
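GI50 = concentration required for 50% inhibition of growth. TGI marks complete inhibition of growth.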

Experiments:
Test in all cases: growth of human tumour cells (NCI), 384-well format
DU-145 prostate = test system: DU-145 prostate
NCI-H322M lung = test system: NCI-H322M lung
OVCAR-4 ovarian = test system: OVCAR-4 ovarian
U251 glioblastoma = test system: U251 glioblastoma
RPMI-8226 leukemia = test system: RPMI-8226 leukemia
SK-MEL-5 melanoma = test system: SK-MEL-5 melanoma
MDA-MB-231 breast = test system: MDA-MB-231 breast
MALME-3M melanoma = test system: MALME-3M melanoma
EKVX NSCLC = test system: EKVX NSCLC
OVCAR-5 ovarian = test system: OVCAR-5 ovarian
SF-295 CNS = test system: SF-295 CNS
IGROV1 ovarian = test system: IGROV1 ovarian
CAKI-1 renal = test system: CAKI-1 renal
786-0 renal = test system: 786-0 renal
BT-549 breast = test system: BT-549 breast
T-47D breast = test system: T-47D breast
COLO 205 colon = test system: COLO 205 colon
SR leukemia = test system: SR leukemia
MCF7 breast = test system: MCF7 breast
NCI-H522 lung = test system: NCI-H522 lung
HS 578T breast = test system: HS 578T breast
OVCAR-3 ovarian = test system: OVCAR-3 ovarian
RXF 393 renal = test system: RXF 393 renal
A498 renal = test system: A498 renal
NCI-H226 lung = test system: NCI-H226 lung
SK-MEL-28 melanoma = test system: SK-MEL-28 melanoma
SNB-19 CNS = test system: SNB-19 CNS
HL-60(TB) leukemia = test system: HL-60(TB) leukemia

## O=c1cc(N2CCOCC2)oc2c(-c3ccccc3)cccc12
DU-145 prostate
  GI50: 8.8 µM
  TGI: 55.5 µM
NCI-H322M lung
  GI50: 12.7 µM
  TGI: 73.2 µM
OVCAR-4 ovarian
  GI50: 1.76 µM
  TGI: 9.3 µM
U251 glioblastoma
  GI50: 16.4 µM
  TGI: 58.7 µM
RPMI-8226 leukemia
  GI50: 2.46 µM
  TGI: 8.77 µM
SK-MEL-5 melanoma
  GI50: 10.8 µM
  TGI: 23.5 µM
MDA-MB-231 breast
  GI50: 4.13 µM
  TGI: 45.8 µM
MALME-3M melanoma
  GI50: 2.12 µM
  TGI: 8.78 µM
EKVX NSCLC
  GI50: 4.43 µM
  TGI: 26.7 µM
OVCAR-5 ovarian
  GI50: 4.02 µM
  TGI: 39.1 µM
SF-295 CNS
  GI50: 17.8 µM
  TGI: > 100 µM
IGROV1 ovarian
  GI50: 2.54 µM
  TGI: 7.63 µM
CAKI-1 renal
  GI50: 1.89 µM
  TGI: 9.03 µM
786-0 renal
  GI50: 7.17 µM
  TGI: 93.5 µM
BT-549 breast
  GI50: 2.61 µM
  TGI: 14.4 µM
T-47D breast
  GI50: 3.6 µM
  TGI: 23.4 µM
COLO 205 colon
  GI50: 10.1 µM
  TGI: 22.6 µM
SR leukemia
  GI50: 2.2 µM
  TGI: 5.98 µM
MCF7 breast
  GI50: 3 µM
  TGI: 25.6 µM
NCI-H522 lung
  GI50: 2.44 µM
  TGI: 10.9 µM
HS 578T breast
  GI50: 2.78 µM
  TGI: 9.32 µM
OVCAR-3 ovarian
  GI50: 6.36 µM
  TGI: 27.9 µM
RXF 393 renal
  GI50: 2.94 µM
  TGI: 16.6 µM
A498 renal
  GI50: 1.86 µM
  TGI: 8.98 µM
NCI-H226 lung
  GI50: 3.45 µM
  TGI: 10.9 µM
SK-MEL-28 melanoma
  GI50: 5.44 µM
  TGI: 30.7 µM
SNB-19 CNS
  GI50: 23.7 µM
  TGI: > 100 µM
HL-60(TB) leukemia
  GI50: 2.6 µM
  TGI: 12.6 µM
